Data set [1] deals with T1, BACE1 (Homo sapiens (Human), UniProt P56817). The data set can be described thus: Measurement of Aβ production inhibition in cell (SK-N-BE(2) neuroblastoma cells, Aβ40 ELISA). The following applies: Test Example 3 IC50, Aβ40 production, SK-N-BE(2) cells, 6 hours. In general terms: ELISA stands for enzyme-linked immunosorbent assay.
Target sequence in this assay (P56817 46-501): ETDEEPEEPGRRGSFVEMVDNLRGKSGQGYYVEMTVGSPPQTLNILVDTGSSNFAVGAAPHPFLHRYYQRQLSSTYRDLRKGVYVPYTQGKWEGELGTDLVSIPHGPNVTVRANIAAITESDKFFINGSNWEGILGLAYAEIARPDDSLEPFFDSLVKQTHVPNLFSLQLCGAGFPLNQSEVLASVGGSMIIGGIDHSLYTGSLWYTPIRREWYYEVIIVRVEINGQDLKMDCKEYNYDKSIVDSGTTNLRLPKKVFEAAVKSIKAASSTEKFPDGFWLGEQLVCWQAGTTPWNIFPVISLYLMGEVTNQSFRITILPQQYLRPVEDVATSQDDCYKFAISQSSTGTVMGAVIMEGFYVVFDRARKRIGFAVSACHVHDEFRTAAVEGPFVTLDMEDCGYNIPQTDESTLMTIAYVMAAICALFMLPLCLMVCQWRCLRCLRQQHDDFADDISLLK
Data set [2] deals with T1, BACE1. The data set can be described thus: Measurement of BACE1 inhibition by fluorescence resonance energy transfer (FRET), MCA substrate. The settings on record: FRET; for IC50: read-out: Test Example 1 IC50, MCA-SEVNLDAEFK(DNP)-NH2 substrate, pH 4.4.
Target sequence in this assay (P56817 75-416): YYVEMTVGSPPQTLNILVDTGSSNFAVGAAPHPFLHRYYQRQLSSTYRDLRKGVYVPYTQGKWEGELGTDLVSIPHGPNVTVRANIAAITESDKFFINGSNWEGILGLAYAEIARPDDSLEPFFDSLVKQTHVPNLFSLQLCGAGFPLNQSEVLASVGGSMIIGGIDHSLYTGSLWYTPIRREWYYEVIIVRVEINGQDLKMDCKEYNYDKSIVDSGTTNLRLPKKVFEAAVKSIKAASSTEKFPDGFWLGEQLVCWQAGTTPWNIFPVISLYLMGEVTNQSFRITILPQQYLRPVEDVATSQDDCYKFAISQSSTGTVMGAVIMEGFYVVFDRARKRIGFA
Data set [3] concerns the target T1, BACE1. The data set can be described thus: Measurement of BACE1 inhibition by time resolved fluorescence resonance energy transfer (TR-FRET). In kind it is biochemical. The settings on record: Eu-CEVNLDAEFK-QSY 7 substrate, read-out: Test Example 2 IC50.
Target sequence in this assay (P56817 75-416): as above
Method: If the sample contains BACE1 activity, the Eu chelate and the quencher will be separated as the substrate is cleaved. The Eu-signal increases and it can be measured by time-resolved fluorometry, EnVision™, 30 minutes after the substrate (final concentration 300 nM) was added.
The target of data set [4] is hERG potassium channel (Homo sapiens (Human), UniProt Q12809). Description: hERG inhibition, automated planar patch-clamp in hERG-expressing CHO cells. The following applies: read-out: Test Example 5 hERG IC50; whole-cell patch clamp, room temperature.
hERG potassium channel, sequence (Q12809 whole entry): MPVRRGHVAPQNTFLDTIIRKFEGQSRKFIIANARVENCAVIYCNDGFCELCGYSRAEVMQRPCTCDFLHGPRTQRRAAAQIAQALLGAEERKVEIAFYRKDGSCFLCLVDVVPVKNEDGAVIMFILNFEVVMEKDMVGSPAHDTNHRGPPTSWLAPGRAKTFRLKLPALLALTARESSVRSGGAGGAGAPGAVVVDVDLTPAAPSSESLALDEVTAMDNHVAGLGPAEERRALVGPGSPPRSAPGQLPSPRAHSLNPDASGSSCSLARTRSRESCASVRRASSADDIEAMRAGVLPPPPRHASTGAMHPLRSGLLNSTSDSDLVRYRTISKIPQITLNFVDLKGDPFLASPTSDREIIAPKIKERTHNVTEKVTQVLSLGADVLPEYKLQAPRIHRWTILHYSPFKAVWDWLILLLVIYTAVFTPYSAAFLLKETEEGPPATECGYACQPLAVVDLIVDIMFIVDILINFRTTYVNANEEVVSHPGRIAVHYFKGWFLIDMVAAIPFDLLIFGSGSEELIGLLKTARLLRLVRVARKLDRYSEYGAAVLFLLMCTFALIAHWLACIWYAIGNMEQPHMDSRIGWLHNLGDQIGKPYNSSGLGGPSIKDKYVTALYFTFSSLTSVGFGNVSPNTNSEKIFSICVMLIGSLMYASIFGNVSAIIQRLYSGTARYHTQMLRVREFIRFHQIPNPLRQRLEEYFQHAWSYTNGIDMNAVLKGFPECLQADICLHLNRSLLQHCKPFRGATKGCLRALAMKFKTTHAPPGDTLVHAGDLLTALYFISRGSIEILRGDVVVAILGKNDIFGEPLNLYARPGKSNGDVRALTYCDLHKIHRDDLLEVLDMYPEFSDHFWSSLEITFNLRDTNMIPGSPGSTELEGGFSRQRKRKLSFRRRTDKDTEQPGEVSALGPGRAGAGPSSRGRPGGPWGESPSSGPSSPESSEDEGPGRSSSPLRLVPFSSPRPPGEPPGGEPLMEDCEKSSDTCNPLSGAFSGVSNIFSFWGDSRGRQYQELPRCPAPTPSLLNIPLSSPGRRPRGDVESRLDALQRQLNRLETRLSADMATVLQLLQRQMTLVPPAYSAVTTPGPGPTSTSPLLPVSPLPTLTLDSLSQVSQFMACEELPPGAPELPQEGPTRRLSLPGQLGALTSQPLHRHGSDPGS
In data set [5] the test system is Aβ42. Description: Brain Aβ reduction in rats (Aβ42 ELISA). In kind it is in vivo, Sprague-Dawley rats. The following applies: rat, oral. As for the experimental part: Effects on brain Aβ reduction in rats were determined with reference to the method described in the WO2012/054510. […] Concretely, the test was conducted with the method as below.
Test compounds were prepared in a vehicle of 35% HPβCD in H2O. The test compound was formulated the same day as oral dosing. Doses (see [Table. 1]) were based on the free base equivalent. Sonication was used where required to facilitate the formulation.
Male Sprague-Dawley rats (150-300 grams) were obtained from Charles River Japan (Atsugi, Japan) and were given approximately 4 days of acclimation. Food and water was made available ad libitum throughout the study. Animals were visually inspected for health before being included into the study group, and were randomly assigned to the treatment and control groups to achieve similar group mean body weights. The dosing solution (dose volume 5 mL/kg) was administered directly into the stomach using a rodent gavage needle. Control animals received oral administration of equivalent volume of the vehicle.
At a time post-dose (e.g., 3 hours; see [Table. 1]), animals were euthanized with isoflurane. […] Plasma was separated using centrifugation at 15,000 rpm (20,400×g) for 5 minutes at 4° C. and subsequently stored at −80° C. After blood sampling, CSF (cerebrospinal fluid) was carefully withdrawn from the cisterna magna using a 29 gauge needle after a quick dissection to expose the atlantooccipital membrane. The CSF samples were centrifuged at 15,000 rpm (20,400×g) for 5 minutes to confirm free of blood contamination and stored at −80° C. Immediately after decapitation, the hippocampus were isolated on ice, and quickly frozen in liquid nitrogen and stored at −80° C.
Fragments of the hippocampus were weighed while frozen. A 10-fold volume (w:v) of TBS (Tris-buffered saline) supplemented with a Complete Mini protease inhibitor tablet (catalog number: 11 836 153 001, Roche Diagnostics, In, USA) was added. The hippocampus were homogenized using sonication on ice in microcentrifuge tube. Resulting homogenates were centrifuged at 100,000×g for 1 hour in a refrigerated centrifuge at 4° C. Supernatants were collected as soluble fraction.
Each concentration of Aβ42 was divided by the mean concentration of Aβ42 of vehicle-treated group, and these ratios were converted to percentages.

Bounds are passed on as bounds.

What is called IC50 is the concentration that inhibits the measured activity by half. Consider `CC1(C)Oc2ccc(-c3ccc4nonc4c3)cc2C2(COC(N)=N2)C12COC2` (stereo not shown) [RP 178], for which the IC50 in data set [1] is 810 nM; in data set [2], 1150 nM; in data set [3], 747 nM.

In the case of `COc1cnc(C(=O)Nc2ccc3c(c2)[C@@]2(COC(N)=N2)C2(COC2)C(C)(C)O3)cn1` [Example 220], in data set [4], the IC50 was > 10000 nM. Also, the “Test Example 4 Aβ42 reduction (%)” value is listed as 21% in data set [5] (3 mg/kg, 1.5 hours) and 27% in data set [5] (10 mg/kg, 1.5 hours).

For `CC1(C)Oc2ccc(-c3ccc4[nH]ccc4c3)cc2C2(COC(N)=N2)C12COC2` (stereo not shown) [RP 174, 6′-(1H-indol-5-yl)-2′,2′-dimethyldispiro[1,3-oxazole-4,4′-chromene-3′,3″-oxetan]-2-amine], the IC50 in data set [1] amounted to 3400 nM; in data set [2], 3350 nM; in data set [3], 2180 nM.

`Cc1cn2cc(-c3ccc4c(c3)C3(COC(N)=N3)C3(COC3)C3(CCC3)O4)ccc2n1` (stereo not shown) [RP 67]: the IC50 in data set [4] was > 10000 nM; in data set [3] it was 96500 nM.

With `CC1(C)Oc2ccc(NC(=O)c3cnc(C(F)F)cn3)cc2[C@@]2(COC(N)=N2)C12CC2` [Example 224, N-[(4′R)-2″-amino-2′,2′-dimethyldispiro[cyclopropane-1,3′-chromene-4′,4″-[1,3]oxazol]-6′-yl]-5-(difluoromethyl)pyrazine-2-carboxamide], the half-inhibitory concentration (IC50) in data set [4] worked out at 15100 nM. The “Test Example 4 Aβ42 reduction (%)” value was found to be 21% in data set [5] (1 mg/kg, 3 hours) and 35% in data set [5] (3 mg/kg, 3 hours).

As for `CC1(C)Oc2ccc(-c3cncc(Cl)c3)cc2C2(COC(N)=N2)C12COC2` (stereo not shown) [RP 173], the IC50 in data set [1] was found to be 73 nM; in data set [2], 401 nM; in data set [3], 239 nM.

For `CC1(C)Oc2ccc(-c3cc(Cl)cnc3F)cc2C2(COC(N)=N2)C12COC2` (stereo not shown) [RP 154], the IC50 in data set [4] was > 1000 nM; in data set [1], 32 nM; in data set [3] it was 313 nM.

On to `Cc1cn2ccc(-c3ccc4c(c3)C3(COC(N)=N3)C3(COC3)C3(CCC3)O4)cc2n1` (stereo not shown) [RP 66], for which the results for the IC50 in data set [4] and in data set [3] were > 10000 nM and 135000 nM, respectively.

As to `CC1(C)Oc2ccc(-c3c(F)ccc(F)c3F)cc2C2(COC(N)=N2)C12COC2` (stereo not shown) [RP 185], the IC50 was determined as 760 nM in data set [1], 2050 nM in data set [2] and 1270 nM in data set [3].

In the case of `COc1cnc(C(=O)Nc2ccc3c(c2)[C@@]2(COC(N)=N2)C2(CC2)C(C)(C)O3)cn1` [Example 223, N-[(4′R)-2″-amino-2′,2′-dimethyldispiro[cyclopropane-1,3′-chromene-4′,4″-[1,3]oxazol]-6′-yl]-5-methoxypyrazine-2-carboxamide], the “Test Example 4 Aβ42 reduction (%)” value is 19% in data set [5] (1 mg/kg, 3 hours) and 34% in data set [5] (3 mg/kg, 3 hours).

Usually melting point stands for the temperature of the solid-liquid transition. As to `COc1cnc(C(=O)Nc2ccc3c(c2)[C@@]2(COC(N)=N2)C2(CC2)C(C)(C)O3)cn1` [Example 230, N-[(4′R)-2″-amino-2′,2′-dimethyldispiro[cyclopropane-1,3′-chromene-4′,4″-[1,3]oxazol]-6′-yl]-5-methoxypyrazine-2-carboxamide], the melting point was found to be 191 °C.

In the case of `NC1=NC2(CO1)c1cc(-c3cc(Cl)cnc3F)ccc1OCC21CC1` (stereo not shown) [RP 104], the IC50 in data set [4] came out at 3250 nM; in data set [3], 1130 nM.

`CC1(C)Oc2ccc(NC(=O)c3cnc(C(F)F)cn3)cc2[C@@]2(COC(N)=N2)C12CC2.Cl` showed a melting point of 254 °C.

Regarding `Cn1cc2cc(-c3ccc4c(c3)C3(COC(N)=N3)C3(CC3)CO4)ccc2n1` (stereo not shown) [RP 213], the IC50 in data set [4] was > 10000 nM; in data set [3], 39600 nM.

As for `CC1(C)Oc2ccc(-c3cccc4cnccc34)cc2C2(COC(N)=N2)C12COC2` (stereo not shown) [RP 180], the IC50 was 490 nM in data set [1], 2030 nM in data set [2] and 1770 nM in data set [3].

For the compound `NC1=NC2(CO1)c1cc(-c3cncc4ccccc34)ccc1OC1(CCC1)C21COC1` (stereo not shown) [RP 210], the IC50 in data set [4] is 3700 nM; in data set [3] it was 4950 nM.

A word on the Ki: it is the equilibrium dissociation constant of an inhibitor or competing ligand from its target. As to `CC1(C)Oc2ccc(NC(=O)c3ccc(Cl)cn3)cc2[C@@]2(COC(N)=N2)C12CC2` [Example 221], the IC50 was 0.16 nM in data set [1] and 81.8 nM in data set [2]. The Ki in data set [2] (read-out: Test Example 1 BACE1 MCA Ki, MCA substrate) is 37.8 nM. Also, the “Test Example 4 Aβ42 reduction (%)” value in data set [5] (1 mg/kg, 3 hours) came out at 24%; in data set [5] (3 mg/kg, 3 hours) it was 42%.

The compound `CC1(C)Oc2ccc(NC(=O)c3ccc(Cl)cn3)cc2[C@@]2(COC(N)=N2)C12COC2` (hydrate or solvate) [Example 218, N-[(4S)-2-amino-2′,2′-dimethyldispiro[1,3-oxazole-4,4′-chromene-3′,3″-oxetan]-6′-yl]-5-chloropyridine-2-carboxamide] registered a melting point of 165 °C.

Regarding `CC1(C)Oc2ccc(-c3cc(C#N)ccc3F)cc2C2(COC(N)=N2)C12COC2` (stereo not shown) [RP 170], the results for the IC50 in data set [1], in data set [2] and in data set [3] were 400 nM, 1000 nM and 588 nM, respectively.

As for `CNC(=O)c1cc(F)cc(-c2ccc3c(c2)C2(COC(N)=N2)C2(COC2)C(C)(C)O3)c1` (stereo not shown) [RP 171], the results for the IC50 in data set [1], in data set [2] and in data set [3] were 3100 nM, 2240 nM and 3040 nM, respectively.

`COC/C=C/c1ccc2c(c1)C1(COC(N)=N1)C1(COC1)C(C)(C)O2` (stereo not shown) [RP 181]: the IC50 in data set [1] came out at 820 nM; in data set [2], 2590 nM; in data set [3], 2130 nM.

On to `CC1(C)Oc2ccc(NC(=O)c3ccc(Cl)cn3)cc2[C@@]2(COC(N)=N2)C12COC2` [Example 218, N-[(4S)-2-amino-2′,2′-dimethyldispiro[1,3-oxazole-4,4′-chromene-3′,3″-oxetan]-6′-yl]-5-chloropyridine-2-carboxamide], for which the “Test Example 4 Aβ42 reduction (%)” value came to 24% in data set [5] (3 mg/kg, 2.5 hours) and 31% in data set [5] (10 mg/kg, 2.5 hours).

For the origin of these results see patent US8975415B2, “Chromane compounds” (CoMentis, Inc., priority 2012, dated 2015).
